Assays:
[1] = test system: benzo[a]pyrene-induced gastric neoplasia; conditions: cited from earlier work
[2] = test system: benzo[a]pyrene-induced transformation of RTE cells; test: rat tracheal epithelial (RTE) cell focus inhibition assay; assay type: cell-based
Method: (§1) The rat tracheal epithelial (RTE) cell focus inhibition assay was used to identify potential chemopreventive activity of tanshinone IIA. Tanshinone IIA was evaluated for its ability to inhibit benzo[a]pyrene-induced transformation of RTE cells. Tracheal epithelial cells were isolated from 8-12 week-old male Fisher 344 rats and plated on collagen coated dishes. Initially, a nontoxic concentration of tanshinone IIA was determined by treating RTE cells with a range of 1.5 nM to 3000 nM of tanshinone IIA. […] About 10% cells survived at a concentration of 1500 nM. Freshly isolated RTE cells were exposed to benzo[a]pyrene alone or in combination with tanshinone IIA. Benzo[a]pyrene was washed out after an exposure of 24 h. The maximal non-toxic concentration and four half log concentrations of tanshinone IIA (300 nM to 3 nM) were used for the chemopreventive assay. After 30 days in culture, transformed foci were scored and inhibition was quantitated. […] A positive control of retinoic acid inhibited the transformation frequency by 50% at 1 nM.

RTE cells = test: toxicity of tanshinone IIA to RTE cells; assay type: cell-based, rat
Method: as §1

NF-κB = conditions: as disclosed in U.S. Application Ser. No. 60/779,142; cited from earlier work

## Cc1c(-c2cnccn2)ssc1=S [Oltipraz, 4-methyl-5-[2-pyrazinyl]-1,2-dithiole-3-thione]
[1]; nrf2-deficient mice
  tumor burden: no effect
[1]; wild-type mice
  multiplicity of gastric neoplasia: significantly reduced

## Cc1coc2c1C(=O)C(=O)c1c-2ccc2c1CCCC2(C)C [Tanshinone IIA]
[2]; 3 nM
  prevention of benzo[a]pyrene-induced transformation of rat tracheal epithelial cells: totally prevented
[2]; each dose level, 300 nM to 3 nM, foci scored after 30 days in culture
  inhibition of transformation frequency: complete inhibition
RTE cells; at 1500 nM
  cells survived: About 10%
RTE cells; range tested 1.5 nM to 3000 nM
  nontoxic concentration: ≤ 150 nM
RTE cells; very low concentrations (3 nM)
  toxicity to the cells: nontoxic
NF-κB
  inhibition of NF-κB: demonstrated inhibition

## CC1=C(/C=C/C(C)=C/C=C/C(C)=C/C(=O)O)C(C)(C)CCC1 [retinoic acid, reference compound]
[2]; Rattus norvegicus, at 1 nM, positive control, read-out: inhibition of transformation frequency
  inhibition at 0.001 µM: 50%

Reference: patent publication US20080017207A1, “Reduction of the Deleterious Effects of Tobacco Smoking by the Induction of Phase 2 Enzymes by Nerf2” (SAVIPU PHARMACEUTICALS, priority 2006, published 2008)
